Among the test systems are NCI/ADR-RES ovarian; HCT-116 colon; SF-268 CNS; K-562 leukemia; SNB-19 CNS; 786-0 renal; KM12 colon; NCI-H226 lung; HT29 colon; IGROV1 ovarian; T-47D breast; OVCAR-5 ovarian; SK-OV-3 ovarian; MCF7 breast; OVCAR-4 ovarian; CAKI-1 renal; SW-620 colon.
What all share (test): DTP human tumour cell line panel, 48 h

Experimental findings from PubChem BioAssay (NCI) are described below.

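48-hour exposure; five concentrations; linearly interpolated endpoints. TGI denotes the concentration required for complete inhibition of growth.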

Usually TGI stands for the concentration giving total growth inhibition. A low value points to more potent growth arrest. Turning to `O=C(c1ccccc1)c1ccc2nc(-c3c(Cl)c(Cl)c(Cl)c(Cl)c3-c3nnc(-c4ccccc4)o3)[nH]c2c1`, the TGI with NCI/ADR-RES ovarian, in the assay on HCT-116 colon, in the assay with SF-268 CNS, with K-562 leukemia, with SNB-19 CNS and in the assay on 786-0 renal was over 100 µM in each case. The TGI with KM12 colon was over 100 µM; in the assay with NCI-H226 lung, 97.7 µM; with HT29 colon it was over 100 µM; in the assay with IGROV1 ovarian, over 100 µM; in the assay on T-47D breast, over 100 µM; in the assay on OVCAR-5 ovarian, over 100 µM. The TGI in the assay on SK-OV-3 ovarian, with MCF7 breast, in the assay on OVCAR-4 ovarian, with CAKI-1 renal and with SW-620 colon was over 100 µM throughout.

As for `CC(C)(C)OC(=O)N/C(C=O)=C\C1CCCCC1`, the TGI with NCI/ADR-RES ovarian was determined as 44.3 µM; in the assay with HCT-116 colon, 36 µM; in the assay with SF-268 CNS, 52.3 µM; in the assay with K-562 leukemia it was 46.2 µM; with SNB-19 CNS it was 76.1 µM; with 786-0 renal, 42.6 µM. The TGI in the assay with KM12 colon was determined as 77.6 µM; in the assay on NCI-H226 lung it was 55.1 µM; with HT29 colon it was 71.6 µM; in the assay with IGROV1 ovarian it was 46 µM; with T-47D breast, 84.5 µM; in the assay on OVCAR-5 ovarian it was 42.3 µM. Besides, the total growth inhibition concentration (TGI) was over 100 µM in the assay on SK-OV-3 ovarian; 72.8 µM with MCF7 breast; 97.8 µM with OVCAR-4 ovarian; 46.9 µM with CAKI-1 renal; over 100 µM in the assay on SW-620 colon.

With `COc1cccc(N=N/C(=N/NC(=O)c2ccc(C)cc2)c2ccc(N(CCC#N)CCC#N)cc2OC)c1`, the TGI in the assay with NCI/ADR-RES ovarian, in the assay with HCT-116 colon, in the assay on SF-268 CNS, with K-562 leukemia, with SNB-19 CNS and in the assay on 786-0 renal was over 100 µM throughout. Also, the TGI in the assay with KM12 colon is over 100 µM; in the assay on NCI-H226 lung it was over 100 µM; in the assay with HT29 colon, 35.5 µM; with IGROV1 ovarian, over 100 µM; in the assay on T-47D breast, over 100 µM; in the assay on OVCAR-5 ovarian, 39.1 µM. For the same compound, the concentration for total growth inhibition (TGI) in the assay with SK-OV-3 ovarian, in the assay on MCF7 breast, in the assay with OVCAR-4 ovarian, in the assay with CAKI-1 renal and with SW-620 colon was over 100 µM in each case.

For `O=C1COc2cc(N3CCN(c4cccc(C(F)(F)F)c4)CC3)ccc2N1`, the concentration for total growth inhibition (TGI) in the assay with NCI/ADR-RES ovarian, with HCT-116 colon, with SF-268 CNS, in the assay with K-562 leukemia, in the assay on SNB-19 CNS and in the assay on 786-0 renal was over 100 µM in each case. Further, the TGI in the assay on KM12 colon, in the assay on NCI-H226 lung, in the assay with HT29 colon, in the assay with IGROV1 ovarian, in the assay on T-47D breast and in the assay with OVCAR-5 ovarian was over 100 µM in each case. In addition, the TGI with SK-OV-3 ovarian, with MCF7 breast, in the assay on OVCAR-4 ovarian, in the assay on CAKI-1 renal and in the assay on SW-620 colon was over 100 µM throughout.

Turning to `Cc1c(C(=O)c2ccc(N)c3ccccc23)c2ccccc2n1CCN1CCOCC1`, the TGI in the assay on NCI/ADR-RES ovarian was over 91.5 µM; with HCT-116 colon it was 48.6 µM; in the assay with SF-268 CNS, over 88.5 µM; in the assay with K-562 leukemia, over 90.6 µM; in the assay on SNB-19 CNS, over 100 µM; with 786-0 renal it was 80.6 µM. Besides, the total growth inhibition concentration (TGI) was 49.1 µM in the assay on KM12 colon; over 100 µM with NCI-H226 lung; 72.5 µM in the assay with HT29 colon; over 89.6 µM with IGROV1 ovarian; over 100 µM with T-47D breast; 98.2 µM with OVCAR-5 ovarian. Besides, the TGI is over 100 µM in the assay on SK-OV-3 ovarian; 70.9 µM in the assay on MCF7 breast; over 47.8 µM with OVCAR-4 ovarian; over 100 µM in the assay with CAKI-1 renal; over 100 µM in the assay with SW-620 colon.

For `COC(=O)c1ccccc1C1CN=NC12Cc1c(ccc3c1CCC3)C2=O` (stereo unspecified), the TGI in the assay with NCI/ADR-RES ovarian, in the assay on HCT-116 colon, with SF-268 CNS, in the assay with K-562 leukemia, with SNB-19 CNS and with 786-0 renal was over 100 µM each time. In addition, the total growth inhibition concentration (TGI) in the assay with KM12 colon, with NCI-H226 lung, with HT29 colon, in the assay on IGROV1 ovarian, in the assay on T-47D breast and in the assay on OVCAR-5 ovarian was over 100 µM in each case. For the same compound, the TGI in the assay on SK-OV-3 ovarian, with MCF7 breast, in the assay on OVCAR-4 ovarian, in the assay with CAKI-1 renal and with SW-620 colon was over 100 µM each time.

On to `Nc1ccc(-c2nc3ccccc3s2)cc1Cl`, for which the TGI with NCI/ADR-RES ovarian, with HCT-116 colon, with SF-268 CNS, in the assay with K-562 leukemia, in the assay with SNB-19 CNS and in the assay on 786-0 renal was over 100 µM throughout. The total growth inhibition concentration (TGI) with KM12 colon, in the assay with NCI-H226 lung, with HT29 colon, with IGROV1 ovarian, in the assay with T-47D breast and with OVCAR-5 ovarian was over 100 µM throughout. For the same compound, the concentration for total growth inhibition (TGI) in the assay with SK-OV-3 ovarian, in the assay on MCF7 breast, in the assay on OVCAR-4 ovarian, in the assay with CAKI-1 renal and with SW-620 colon was over 100 µM in each case.

As for `C[C@]12CC[C@H]3[C@@H](CCC4=CC(=O)C=C[C@@]43OC(=O)C(F)(F)F)[C@@H]1CCC2=O`, the total growth inhibition concentration (TGI) was over 100 µM with NCI/ADR-RES ovarian; over 56 µM in the assay with HCT-116 colon; over 100 µM in the assay on SF-268 CNS; over 100 µM with K-562 leukemia; over 100 µM in the assay with SNB-19 CNS; over 83.5 µM in the assay on 786-0 renal. In addition, the TGI in the assay with KM12 colon, in the assay with NCI-H226 lung, with HT29 colon, in the assay with IGROV1 ovarian, with T-47D breast and in the assay with OVCAR-5 ovarian was over 100 µM throughout. Moreover, the total growth inhibition concentration (TGI) with SK-OV-3 ovarian, in the assay with MCF7 breast, with OVCAR-4 ovarian, with CAKI-1 renal and in the assay on SW-620 colon was over 100 µM throughout.

For `O=c1[nH]nc(-c2ccccc2)n1/N=C/c1ccc([N+](=O)[O-])o1`, the TGI is over 26 µM with NCI/ADR-RES ovarian; 5.55 µM with HCT-116 colon; over 28 µM in the assay with SF-268 CNS; over 77.1 µM in the assay with K-562 leukemia; over 47.2 µM in the assay on SNB-19 CNS; over 31.7 µM in the assay with 786-0 renal. For the same compound, the total growth inhibition concentration (TGI) is 23.2 µM in the assay with KM12 colon; 37.5 µM with NCI-H226 lung; over 48.7 µM in the assay on HT29 colon; 16.9 µM with IGROV1 ovarian; over 96.4 µM in the assay with T-47D breast; 31.5 µM in the assay on OVCAR-5 ovarian. The concentration for total growth inhibition (TGI) in the assay with SK-OV-3 ovarian was determined as 65.6 µM; in the assay with MCF7 breast, 7.21 µM; with OVCAR-4 ovarian, 16.7 µM; with CAKI-1 renal, 28.2 µM; in the assay with SW-620 colon, 15.2 µM.

In the case of `O=C(O)CSc1ccccc1C(=O)O`, the TGI in the assay on NCI/ADR-RES ovarian, with HCT-116 colon, with SF-268 CNS, in the assay with K-562 leukemia, in the assay on SNB-19 CNS and in the assay with 786-0 renal was over 100 µM each time. In addition, the concentration for total growth inhibition (TGI) with KM12 colon, with NCI-H226 lung, in the assay on HT29 colon, in the assay on IGROV1 ovarian, in the assay on T-47D breast and in the assay on OVCAR-5 ovarian was over 100 µM in each case. The TGI in the assay with SK-OV-3 ovarian, in the assay with MCF7 breast, in the assay with OVCAR-4 ovarian, in the assay with CAKI-1 renal and with SW-620 colon was over 100 µM each time.

As for `Cc1ccc(S(=O)(=O)NC(CCC(=O)NNc2ccccc2)C(=O)NNc2ccccc2)cc1` (stereo unspecified), the TGI with NCI/ADR-RES ovarian, in the assay with HCT-116 colon, in the assay with SF-268 CNS, in the assay on K-562 leukemia, in the assay on SNB-19 CNS and in the assay on 786-0 renal was over 100 µM throughout. For the same compound, the TGI in the assay on KM12 colon, in the assay on NCI-H226 lung, in the assay on HT29 colon, with IGROV1 ovarian, with T-47D breast and with OVCAR-5 ovarian was over 100 µM in each case. Moreover, the concentration for total growth inhibition (TGI) was over 100 µM in the assay with SK-OV-3 ovarian; over 100 µM in the assay with MCF7 breast; 99.2 µM in the assay on OVCAR-4 ovarian; over 100 µM in the assay with CAKI-1 renal; over 100 µM in the assay with SW-620 colon.

As to `Cc1cn(C2CCC(CO)(CF)O2)c(=O)[nH]c1=O` (stereo unspecified), the concentration for total growth inhibition (TGI) in the assay with NCI/ADR-RES ovarian, in the assay on HCT-116 colon, with SF-268 CNS, in the assay on K-562 leukemia, in the assay on SNB-19 CNS and with 786-0 renal was over 100 µM throughout. Moreover, the total growth inhibition concentration (TGI) with KM12 colon, in the assay with NCI-H226 lung, in the assay on HT29 colon, in the assay on IGROV1 ovarian, in the assay on T-47D breast and with OVCAR-5 ovarian was over 100 µM throughout. The TGI in the assay with SK-OV-3 ovarian, with MCF7 breast, in the assay on OVCAR-4 ovarian, with CAKI-1 renal and in the assay on SW-620 colon was over 100 µM throughout.

In the case of `Cc1cc(-n2nnc(C(=O)O)c2-c2ccccc2)c2ccc(Cl)cc2n1`, the TGI in the assay with NCI/ADR-RES ovarian, in the assay on HCT-116 colon, in the assay with SF-268 CNS, in the assay with K-562 leukemia, in the assay with SNB-19 CNS and in the assay with 786-0 renal was over 100 µM throughout. Further, the TGI in the assay on KM12 colon, in the assay on NCI-H226 lung, in the assay with HT29 colon, in the assay on IGROV1 ovarian, in the assay with T-47D breast and in the assay with OVCAR-5 ovarian was over 100 µM in each case. Besides, the concentration for total growth inhibition (TGI) in the assay with SK-OV-3 ovarian, in the assay with MCF7 breast, in the assay with OVCAR-4 ovarian, in the assay with CAKI-1 renal and in the assay on SW-620 colon was over 100 µM in each case.
